Results taken from patent US20050244472A1, “Intraocular drug delivery systems containing excipients with reduced toxicity and related methods” (Allergan, Inc., priority 2004, published 2005).
Like-named read-outs stand apart in the source and are kept apart here.

Key:
[1] = Osmolarity of excipient-containing incubating solutions; type: physicochemical
Description: Osmolarity was measured using osmometer type 13/13DR from Roebling (Berlin, GR).
(§1) For each concentration of tested compound, pH and osmolarity parameters were measured.

ARPE-19 cells [2] = assay: in vitro
Source text: (§2) Cell viability and cell morphology were examined to evaluate the toxicity of excipients on retinal pigment epithelial cells. The human retina cell line used in these experiments is the ARPE-19 cell line (human adult-derived retinal pigmented epithelial cells). […] They form tight-junctions with transepithelial resistance of monolayers (Dunn K C et al., supra). From a molecular standpoint, it appears that ARPE-19 express a huge pattern of genes similar to those expressed by human RPE from fresh explant which could account for their physiological function (Klimanskaya I. et al., “Derivation and comparative assessment of retinal pigment epithelium from human embryonic stem cells using transcriptomics”, Cloning and Stem Cells, 2004, 6(3):217-45).
(§3) ARPE-19 cells are widely used as a retinal model that resemble physiological properties of RPE cells. Similar methods of culturing ARPE-19 cells and cytotoxicity assays can be found in Yeung et al., “Cytotoxicity of triamcinolone on cultured human retinal pigment epithelial cells: comparison with dexamethasone and hydrocortisone”, Jpn J. Ophthalmol, 2004; 48:236-242. Cell viability and cell morphology were examined using conventional colormetric and visual methods. Viability and morphology measurements were obtained at 24 hours, 48 hours, and 72 hours after exposure to an excipient composition.
(§4) To assess cell viability, mitochondrial metabolism was quantified through conventional colorometric assays (i.e., the MTT assay). This colorimetric assay utilizes 3-(4,5-dimethylthiazol-2-yl)-2,5-diphenyltetrazolium bromide (MTT) and correlates mitochondrial metabolism and cell viability through measurement of dehydrogenase activity which converts a substrate into crystal. More specifically, the assay measures the activity of living cells through mitochondrial dehydrogenases. When dissolved in culture cell medium, MTT solution appears dark orange. Mitochondrial dehydrogenases of viable cells degrade MTT by cleaving the tetrazolium ring yielding to formation of a purple formazan crystal, which is insoluble in water. Crystals are subsequently dissolved in isopropanol solution. A resulting purple solution is spectrophotometrically measured. Cell viability is relative to amount of formazan and calculated as a percentage of remaining treated compared to non-treated cells.
(§5) Results from the MTT assay were expressed as a percentage of cell viability calculated using the following equation: % cell viability=ODtest/ODcontrol×100.
(§6) For each experiment, one concentration was performed in triplicate. Each point was spectrophotometrically read twice. Average of readings was calculated, then average from these 3 values was determined.
(§7) After 3 experiments were independently completed under the same conditions, a graph was plotted with cell viability expressed as a function of concentration (dose response) and for various incubation period (time course). The IC50 was then estimated based on the graphed data.
(§8) More specifically, cell density in 24-multiwell plates was observed on the day of the experiment to check if confluence of the cells was reached. Aliquots of MTT concentrated solutions were removed from a freezer at −20° C. and thawed at room temperature. Cell medium was warmed at 37° C. before use. Appropriated tubes for diluting compounds were prepared. Higher concentrations of each excipient agent was prepared. Serial dilution was then performed in cell medium (DMEM:F12+10% FBS).
(§9) Cell culture medium in the 24-well plate was removed using vacuum-pump. Cells were then stimulated with 0.5 ml final volume for each concentration of one given excipient agent. Distribution of the excipient-containing solution was performed using automated pipet-aid in sterile environment (under PSM) or not depending on time of compounds and duration of incubation.
(§10) After stimulation, cells were replaced in a CO2 incubator for the required time of exposure.

in vitro = details: human
Source text: as §2, §3, §4, §5, §6, §7, §8, §9, §10

ARPE-19 cells [3] = type: cell-based
Description: Cell morphology was visualized using light microscopy. Cell morphology observation using light microscopy permits determination of (i) cell number and density and (ii) whether or not cells in contact with an excipient agent display modified phenotype compared to a non-treated population of cells.
Cell morphology was analyzed in parallel by semi-quantitative scoring ranging from 5 to 1, from basal to lethal phenotype respectively, as shown in FIG. 23.
More specifically, cells were removed from an incubator for examination. Morphological shape of cells was visualized using a light microscope and CCD camera. Every 3 wells of a given concentration was observed through image analysis software. Then, a representative photograph describing the average appearance of cells was saved. The supernatant was either, kept for further predefined experiments to perform, or removed using vacuum-pump.
Resulting semi-quantitative scoring is represented as a function of time course and dose response. Score 5: wild type phenotype of non-treated cells, 100% confluent adherent cells. This phenotype very much vary following post-seeding time. For example, at confluence ARPE-19 cells at 1 day appear well defined with visible outer membrane and dark grey cytoplasm. After 3 days of confluence, limits between cells become less visible and cells adopt a more hexagonal shape and constitute an epithelium-like uniform dense structure. Score 4: density<100%. Cell shape has changed, some spaces are present between cells, few cells possibly detached. Score 3: […]. Spaces are sometimes present among cells, areas appears confluent while in others, cells detached. General cell shape starts showing non negligible alterations. Score 2: Cell density<50%. Cells adopt exclusively stressed appearance, presence of mass dead floating cells. Score 1: Cell density<10%. Presence of almost exclusively dead cells.
Based on quotation, each condition of the applied compound was given a score which allow to a morphology evolution profile to be prepared, ie. cell morphology as a function of compound concentration and time of exposure. […]

[4] = pH of excipient-containing incubating solutions; type: physicochemical
Description: as §1

[5] = 0.05% excipient dilution in culture medium
[6] = 0.1% excipient dilution in culture medium
[7] = 0.5% excipient dilution in culture medium
[8] = 1% excipient dilution in culture medium
[9] = 2% excipient dilution in culture medium
[10] = […] excipient dilution in culture medium

- mOsm [1, 5]: 293 mOsm
- mOsm [1, 6]: 307 mOsm
- mOsm [1, 7]: 347 mOsm
- mOsm [1, 8]: 398 mOsm
- mOsm [1, 9]: 493 mOsm
- mOsm [1, 10]: 444 mOsm
- pH [4, 5]: 8
- pH [4, 6]: 8.1
- pH [4, 7]: 8
- pH [4, 8]: 7.9
- pH [4, 9]: 8
- pH [4, 10]: 7.9
Structure (SMILES): OCc1ccccc1 [Benzyl alcohol, benzyl alcohol]
- overall cytotoxicity to ARPE-19 cells (conclusion in words) (ARPE-19 cells [2]): very aggressive impact
- cytotoxicity at 0.05 % (in vitro): ~45%
- viability at 24 h, 0.05 % (in vitro; Cell Viability): 56.1%
- viability at 24 h, 0.1 % (in vitro; Cell Viability): 48%
- viability at 48 h, 0.05 % (in vitro; Cell Viability): 60.9%
- viability at 48 h, 0.1 % (in vitro; Cell Viability): 49%
- viability at 48 h, 0.5 % (in vitro; Cell Viability): 1.2%
- viability at 72 h, 0.05 % (in vitro; Cell Viability): 57.5%
- viability at 72 h, 0.1 % (in vitro; Cell Viability): 49.1%
- viability at 24 h, 0.05 % (in vitro; Cell Viability, Mean (%)): 55.7%
- viability at 24 h, 0.1 % (in vitro; Cell Viability, Mean (%)): 45.9%
- viability at 24 h, 0.5 % (in vitro; Cell Viability, Mean (%)): 13.3%
- viability at 24 h, 1 % (in vitro; Cell Viability, Mean (%)): 0.4%
- viability at 24 h, 2 % (in vitro; Cell Viability, Mean (%)): 0.3%
- viability at 24 h, […] (in vitro; Cell Viability, Mean (%)): 0.4%
- viability at 48 h, 0.05 % (in vitro; Cell Viability, Mean (%)): 57.3%
- viability at 48 h, 0.1 % (in vitro; Cell Viability, Mean (%)): 42%
- viability at 48 h, 0.5 % (in vitro; Cell Viability, Mean (%)): 1.5%
- viability at 48 h, 1 % (in vitro; Cell Viability, Mean (%)): 1.5%
- viability at 48 h, 2 % (in vitro; Cell Viability, Mean (%)): 1.2%
- viability at 48 h, […] (in vitro; Cell Viability, Mean (%)): 1.3%
- viability at 72 h, 0.05 % (in vitro; Cell Viability, Mean (%)): 53.7%
- viability at 72 h, 0.1 % (in vitro; Cell Viability, Mean (%)): 42.2%
- viability at 72 h, 0.5 % (in vitro; Cell Viability, Mean (%)): 1.1%
- viability at 72 h, 1 % (in vitro; Cell Viability, Mean (%)): 0.9%
- viability at 72 h, 2 % (in vitro; Cell Viability, Mean (%)): 1%
- viability at 72 h, […] (in vitro; Cell Viability, Mean (%)): 1%
- living cells (morphology observation) (ARPE-19 cells [3]): no living cells survived
- Morphology limit concentration (%) (ARPE-19 cells [3]; human): 0.07%
- Cell Morphology score, Mean (ARPE-19 cells [3]; human, 24 h, 0.05 %): 3.3
- Cell Morphology score, Mean (ARPE-19 cells [3]; human, 24 h, 0.1 %): 3.0
- Cell Morphology score, Mean (ARPE-19 cells [3]; human, 24 h, 0.5 %): 1.0
- Cell Morphology score, Mean (ARPE-19 cells [3]; human, 24 h, 1 %): 1.0
- Cell Morphology score, Mean (ARPE-19 cells [3]; human, 24 h, 2 %): 1.0
- Cell Morphology score, Mean (ARPE-19 cells [3]; human, 24 h, […]): 1.0
- Cell Morphology score, Mean (ARPE-19 cells [3]; human, 48 h, 0.05 %): 3.7
- Cell Morphology score, Mean (ARPE-19 cells [3]; human, 48 h, 0.1 %): 3.0
- Cell Morphology score, Mean (ARPE-19 cells [3]; human, 48 h, 0.5 %): 1.0
- Cell Morphology score, Mean (ARPE-19 cells [3]; human, 48 h, 1 %): 1.0
- Cell Morphology score, Mean (ARPE-19 cells [3]; human, 48 h, 2 %): 1.0
- Cell Morphology score, Mean (ARPE-19 cells [3]; human, 48 h, […]): 1.0
- Cell Morphology score, Mean (ARPE-19 cells [3]; human, 72 h, 0.05 %): 3.3
- Cell Morphology score, Mean (ARPE-19 cells [3]; human, 72 h, 0.1 %): 3.0
- Cell Morphology score, Mean (ARPE-19 cells [3]; human, 72 h, 0.5 %): 1.0
- Cell Morphology score, Mean (ARPE-19 cells [3]; human, 72 h, 1 %): 1.0
- Cell Morphology score, Mean (ARPE-19 cells [3]; human, 72 h, 2 %): 1.0
- Cell Morphology score, Mean (ARPE-19 cells [3]; human, 72 h, […]): 1.0
